Test results as given in patent US20250257061A1, “COMPOSITIONS AND METHODS FOR TREATING CANCER AND REDUCING WNT MEDIATED EFFECTS” (StemSynergy Therapeutics, Inc., priority 2024, published 2025).
pIC50: −log10 of the molar value. Like-named read-outs stand apart in the source and are kept apart here.

Columns and labels:
[1] = tested on: Wnt reporter (TCF/LEF1 promoter); experiment: HEK STF293 Wnt reporter (TOPFlash) luciferase assay, Steady Glo normalised to Cell Titer; type: cell-based, human; settings: Examples for Formulae (IV), (V), (VI), and (VII), HEK STF293 cells, Wnt3a-conditioned media, read-out: TOPFlash IC50 category
Method: All compounds were tested using the human cell line HEK STF293. This cell line carries a Wnt reporter (TCF/LEF1 promoter), which drives expression of the firefly luciferase protein. The level of Wnt activity is directly correlated with the level of luciferase activity (determined using a simple assay). Compounds that inhibit Wnt signaling by reducing luciferase activity in these two cell lines are further tested biochemically. […] Compounds were further tested in a Viability assay using Wnt-dependent HCT116 cell line. Compounds were prepared as 10 mM stocks for each compound in DMSO. Dilutions were prepared in a 96-well plate in DMSO. The stock dilutions are as follows: 10 mM, 1 mM, 100 μM, 10 μM, 100 nM, and 10 nM. Plates were sealed and stored at −20° C. […] On the first day, Wnt3a-conditioned media (1:1) were added along with diluted compounds (1:100). […] The final concentrations should therefore be 100 μM, 10 μM, 1 μM, 100 nM, 10 nM, and 1 nM. On the second day, the media was removed and 75 μL of Passive Lysis Buffer (Promega) is added to each well. The plate was shaken at 130 rpm for 15 minutes. For the Steady Glo assay, 45 μL of the lysis was removed and added to a white 96-well plate containing 45 μL/well of Steady Glo solution (Promega). For the Cell Titer assay, 25 μL of the lysis was transferred to a white 96-well plate containing 25 μL/well of Cell Titer solution (Promega). Both Steady Glo and Cell Titer assays were read with a luminescence plate reader. When determining EC50, the Steady Glo values were divided by the Cell Titer values to normalize for cell number. All compounds were tested using the human cell line HEK STF293. This cell line carries a Wnt reporter (TCF/LEF1 promoter), which drives expression of the firefly luciferase protein. The level of Wnt activity is directly correlated with the level of luciferase activity (determined using a simple assay). Compounds that inhibit Wnt signaling by reducing luciferase activity in these two cell lines are further tested biochemically. […] Compounds were further tested in a Viability assay using Wnt-dependent HCT116 cell line. Compounds were prepared as 10 mM stocks for each compound in DMSO. Dilutions were prepared in a 96-well plate in DMSO. The stock dilutions are as follows: 10 mM, 1 mM, 100 μM, 10 μM, 100 nM, and 10 nM. Plates were sealed and stored at −20° C. […] On the first day, Wnt3a-conditioned media (1:1) were added along with diluted compounds (1:100). […] The final concentrations should therefore be 100 μM, 10 μM, 1 μM, 100 nM, 10 nM, and 1 nM. On the second day, the media was removed and 75 μL of Passive Lysis Buffer (Promega) is added to each well. The plate was shaken at 130 rpm for 15 minutes. For the Steady Glo assay, 45 μL of the lysis was removed and added to a white 96-well plate containing 45 μL/well of Steady Glo solution (Promega). For the Cell Titer assay, 25 μL of the lysis was transferred to a white 96-well plate containing 25 μL/well of Cell Titer solution (Promega). Both Steady Glo and Cell Titer assays were read with a luminescence plate reader. When determining EC50, the Steady Glo values were divided by the Cell Titer values to normalize for cell number. All compounds were tested using the human cell line HEK STF293. This cell line carries a Wnt reporter (TCF/LEF1 promoter), which drives expression of the firefly luciferase protein. The level of Wnt activity is directly correlated with the level of luciferase activity (determined using a simple assay). Compounds that inhibit Wnt signaling by reducing luciferase activity in these two cell lines are further tested biochemically. […] Compounds were further tested in a Viability assay using Wnt-dependent HCT116 cell line. Compounds were prepared as 10 mM stocks for each compound in DMSO. Dilutions were prepared in a 96-well plate in DMSO. The stock dilutions are as follows: 10 mM, 1 mM, 100 μM, 10 μM, 100 nM, and 10 nM. Plates were sealed and stored at −20° C. […]

[2] = tested on: Wnt-dependent HCT116 cell line; experiment: Viability assay using Wnt-dependent HCT116 cell line (Cell Titer Glo); type: cell-based; settings: Examples for Formulae (IV), (V), (VI), and (VII), HCT116 cells, read-out: Viability IC50 category
Method: All compounds were tested using the human cell line HEK STF293. This cell line carries a Wnt reporter (TCF/LEF1 promoter), which drives expression of the firefly luciferase protein. The level of Wnt activity is directly correlated with the level of luciferase activity (determined using a simple assay). Compounds that inhibit Wnt signaling by reducing luciferase activity in these two cell lines are further tested biochemically. […] Compounds were further tested in a Viability assay using Wnt-dependent HCT116 cell line. HEK293 cells were seeded in a 6-well plate at approximately 8.0×10^5 cells (2 mL per well). On the first day, Wnt3a-conditioned media (1:1) and compounds (1:100) were added to the plated cells. The final concentrations of compounds were 1 μM, 500 nM, and 100 nM. Vehicle (DMSO) and a Wnt3a-conditioned media plus Vehicle samples were also prepared as controls. Lysates were collected (with non-denaturing lysis buffer) after 24 hours incubation, and protein concentrations determined by Bradford Assay. Immunoblotting with an anti-beta-catenin antibody (equivalent amounts of protein/lane for each condition) were subsequently performed to determine beta-catenin levels. HCT116 cells were seeded at 2,500 cells/well in a 96-well dish (Volume: 100 μL/well). On the second day, the 10 mM stock solution of each test compound was thawed at room temperature. Dilutions of the test compound were prepared in DMSO in a V-bottom 96-well plate. The stock compound solution, DMSO-diluted compound solutions, and DMSO were further diluted 500-fold in cell culture media, and 100 μL of the compound- or DMSO-containing cell culture media was added to each well of the cells. […] The final DMSO concentration was 0.1% in all wells. On the fifth day, 150 μL of media was removed from each well. 50 μL/well Cell Titer Glo reagent (Promega) was added to each well. The plate was shaken at 130 rpm for 15 minutes at room temperature, and the cell viability was determined using a luminescence plate reader. All compounds were tested using the human cell line HEK STF293. This cell line carries a Wnt reporter (TCF/LEF1 promoter), which drives expression of the firefly luciferase protein. The level of Wnt activity is directly correlated with the level of luciferase activity (determined using a simple assay). Compounds that inhibit Wnt signaling by reducing luciferase activity in these two cell lines are further tested biochemically. […] Compounds were further tested in a Viability assay using Wnt-dependent HCT116 cell line. HEK293 cells were seeded in a 6-well plate at approximately 8.0×10^5 cells (2 mL per well). On the first day, Wnt3a-conditioned media (1:1) and compounds (1:100) were added to the plated cells. The final concentrations of compounds were 1 μM, 500 nM, and 100 nM. Vehicle (DMSO) and a Wnt3a-conditioned media plus Vehicle samples were also prepared as controls. Lysates were collected (with non-denaturing lysis buffer) after 24 hours incubation, and protein concentrations determined by Bradford Assay. Immunoblotting with an anti-beta-catenin antibody (equivalent amounts of protein/lane for each condition) were subsequently performed to determine beta-catenin levels. HCT116 cells were seeded at 2,500 cells/well in a 96-well dish (Volume: 100 μL/well). On the second day, the 10 mM stock solution of each test compound was thawed at room temperature. Dilutions of the test compound were prepared in DMSO in a V-bottom 96-well plate. The stock compound solution, DMSO-diluted compound solutions, and DMSO were further diluted 500-fold in cell culture media, and 100 μL of the compound- or DMSO-containing cell culture media was added to each well of the cells. […] The final DMSO concentration was 0.1% in all wells. On the fifth day, 150 μL of media was removed from each well. 50 μL/well Cell Titer Glo reagent (Promega) was added to each well. The plate was shaken at 130 rpm for 15 minutes at room temperature, and the cell viability was determined using a luminescence plate reader. […]

Compound | pIC50 ([1]; Homo sapiens, STF/293) | pIC50 ([2]; Homo sapiens, HCT-116) | pIC50 [1] | pIC50 [2]
CN(C(=O)c1ccccc1F)c1ncc(C(=O)Nc2nc(-c3ccccn3)cs2)o1 [Example 36] | 6.30 to 6.70 | 6.00 to 6.30 | – | –
CN(c1ncc(C(=O)O)o1)S(=O)(=O)c1ccc(Cl)cc1 [Example 37] | – | – | > 6.70 | 6.30 to 6.70
CN(c1ncc(C(=O)Nc2nc(-c3ccccn3)cs2)o1)S(=O)(=O)c1ccc(Cl)cc1 [Example 38] | – | – | 6.30 to 6.70 | 6.00 to 6.30
COc1ccc(S(=O)(=O)N(C)c2ncc(C(=O)Nc3nc(-c4ccccn4)cs3)o2)cc1 [Example 39] | 6.00 to 6.30 | 6.00 to 6.30 | – | –
COc1ccc(S(=O)(=O)N(C)c2ncc(C(=O)O)o2)cc1 [Example 40] | – | – | 6.30 to 6.70 | 6.30 to 6.70
CN(C)C(=O)c1ccc(-c2ncoc2C(=O)Nc2nc(-c3ccccn3)cs2)cc1 [Example 41] | 6.00 to 6.30 | 6.00 to 6.30 | – | –
O=C(Nc1nc(-c2ccccn2)cs1)c1ocnc1-c1ccc(C(=O)N2CCOCC2)cc1 [Example 42] | 6.00 to 6.30 | 6.00 to 6.30 | – | –
CN(c1ncc(C(=O)O)o1)S(=O)(=O)c1ccc(C(F)(F)F)cc1 [Example 43] | – | – | > 6.70 | > 6.70
CS(=O)(=O)c1ccccc1-c1ncoc1C(=O)Nc1nc(-c2ccccn2)cs1 [Example 44] | – | – | 5.00 to 6.00 | 6.00 to 6.30
CN1CCN(c2cccc(-c3ncoc3C(=O)Nc3nc(-c4ccccn4)cs3)c2)CC1 [Example 45] | – | – | 5.00 to 6.00 | 5.00 to 6.00
COc1cc(F)ccc1-c1ncoc1C(=O)Nc1nc(-c2ccccn2)cs1 [Example 46] | – | – | 6.00 to 6.30 | 6.00 to 6.30
CS(=O)(=O)c1ccc(F)cc1-c1ncoc1C(=O)Nc1nc(-c2ccccn2)cs1 [Example 47] | 6.00 to 6.30 | 6.30 to 6.70 | – | –
CS(=O)(=O)c1cccc(-c2ncoc2C(=O)Nc2nc(-c3ccccn3)cs2)c1 [Example 48] | – | – | 6.00 to 6.30 | 6.30 to 6.70
Cc1nc(N(C)S(=O)(=O)c2ccccc2Cl)oc1C(=O)Nc1nc(-c2ccccn2)cs1 [Example 49] | 6.30 to 6.70 | 6.00 to 6.30 | – | –
